Test results from publication PMC4422956 (EJNMMI Research, 2014).

Key:
[1] = molecular target: T1, human DA D2L receptor (Homo sapiens, UniProt P14416); assay: cAMP accumulation, HEK […] cells; type: cell-based; settings: read-out: cAMP / Potency (converted)
T1 construct: gene DRD2; full-length D2L stably expressed in HEK 293 cells

[2] = molecular target: T1, human DA D2L receptor; assay: 3H-spiperone radioligand binding, membranes; settings: read-out: pK i D 2 -high (converted)
Text: 3H-spiperone radioligand binding, membranes on human DA D2L receptor

T1 sequence (P14416 whole entry): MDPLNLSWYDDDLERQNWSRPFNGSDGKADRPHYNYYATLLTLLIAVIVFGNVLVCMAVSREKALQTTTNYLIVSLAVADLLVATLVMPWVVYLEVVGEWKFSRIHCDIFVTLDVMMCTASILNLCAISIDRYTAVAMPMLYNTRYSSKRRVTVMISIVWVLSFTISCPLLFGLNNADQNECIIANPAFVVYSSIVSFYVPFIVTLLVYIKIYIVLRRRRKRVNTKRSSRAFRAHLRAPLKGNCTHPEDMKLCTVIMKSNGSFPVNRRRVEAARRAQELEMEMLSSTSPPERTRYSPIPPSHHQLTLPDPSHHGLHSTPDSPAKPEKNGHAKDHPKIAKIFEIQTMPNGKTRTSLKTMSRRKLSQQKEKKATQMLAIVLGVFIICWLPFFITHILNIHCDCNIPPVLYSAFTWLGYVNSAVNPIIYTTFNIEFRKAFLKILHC

- EC50 [1]: 0.832 nM
- Ki [2]: 102 nM
SMILES: CCN1CCC[C@H]1CNC(=O)c1c(OC)ccc(I)c1O [IBZM]
